T1: Thioredoxin Reductase (gTrxR) (Giardia duodenalis, UniProt E2RU27)
T1 sequence (E2RU27 1-314): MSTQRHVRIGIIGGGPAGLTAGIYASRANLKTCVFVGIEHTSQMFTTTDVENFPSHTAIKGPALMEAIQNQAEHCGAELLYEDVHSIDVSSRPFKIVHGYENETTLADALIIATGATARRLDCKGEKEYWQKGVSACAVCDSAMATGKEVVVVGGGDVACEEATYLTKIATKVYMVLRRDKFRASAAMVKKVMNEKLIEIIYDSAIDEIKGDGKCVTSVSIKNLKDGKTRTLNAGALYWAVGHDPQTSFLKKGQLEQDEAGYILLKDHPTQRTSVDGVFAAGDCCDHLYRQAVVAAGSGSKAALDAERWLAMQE

T2: Elongation Factor 1Bγ (gEF1Bγ) (Giardia duodenalis, UniProt A8BFR0)
T2 sequence (A8BFR0 1-402): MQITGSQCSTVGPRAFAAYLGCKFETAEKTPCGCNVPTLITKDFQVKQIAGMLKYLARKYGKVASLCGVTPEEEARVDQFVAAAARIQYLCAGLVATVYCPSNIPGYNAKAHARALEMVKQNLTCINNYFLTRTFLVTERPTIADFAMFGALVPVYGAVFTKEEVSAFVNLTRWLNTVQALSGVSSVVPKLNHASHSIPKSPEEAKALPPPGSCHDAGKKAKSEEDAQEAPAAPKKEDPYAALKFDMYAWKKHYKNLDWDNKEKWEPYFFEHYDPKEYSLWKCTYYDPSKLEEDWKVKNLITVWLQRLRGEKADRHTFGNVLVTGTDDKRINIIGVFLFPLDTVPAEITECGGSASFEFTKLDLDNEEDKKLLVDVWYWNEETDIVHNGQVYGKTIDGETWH


Legend:
[1] = biological target: T1, Thioredoxin Reductase (gTrxR); test: intrinsic protein fluorescence quenching; type: binding
[2] = biological target: T2, Elongation Factor 1Bγ (gEF1Bγ); test: intrinsic protein fluorescence quenching; type: binding
purified protein [3] = substrate: NC(=O)C1=CN([C@@H]2O[C@H](COP(=O)(O)OP(=O)(O)OC[C@H]3O[C@@H](n4cnc5c(N)ncnc54)[C@H](OP(=O)(O)O)[C@@H]3O)[C@@H](O)[C@H]2O)C=CC1; test: purified protein; settings: FAD NADPH-binding domain
purified protein [4] = substrate: O=C(O)c1cc(SSc2ccc([N+](=O)[O-])c(C(=O)O)c2)ccc1[N+](=O)[O-]; test: purified protein; settings: FAD; NADPH site partially overlapping that of NBDHEX

Kd [1] [nM] | Kd [2] [nM] | Molecule | Km (purified protein [3]) [µM] | Km (purified protein [4]) [µM]
140 ± 50 | < 400 | O=[N+]([O-])c1ccc(SCCCCCCO)c2nonc12 [NBDHEX, 6-(7-nitro-2,1,3-benzoxadiazol-4-ylthio)hexanol] | – | –
– | – | Thioredoxin Reductase (gTrxR) (Giardia lamblia ATCC 50803) (protein) MSTQRHVRIGIIGGGPAGLTAGIYASRANLKTCVFVGIEHTSQMFTTTDVENFPSHTAIKGPALMEAIQNQAEHCGAELLYEDVHSIDVSSRPFKIVHGYENETTLADALIIATGATARRLDCKGEKEYWQKGVSACAVCDSAMATGKEVVVVGGGDVACEEATYLTKIATKVYMVLRRDKFRASAAMVKKVMNEKLIEIIYDSAIDEIKGDGKCVTSVSIKNLKDGKTRTLNAGALYWAVGHDPQTSFLKKGQLEQDEAGYILLKDHPTQRTSVDGVFAAGDCCDHLYRQAVVAAGSGSKAALDAERWLAMQE | 2.6 ± 0.6 | 1500 ± 100
